Experimental data taken from patent publication US20030153611A1, “1,3-Diarylprop-2-en-1-ones, compositions containing them and use thereof” (AVENTIS PHARMA S.A., priority 2001, published 2003).
Where a name gives a salt, the structure may show the parent alone.

How the values were obtained:
[1] = tested on: C51 murine adenocarcinoma; experiment: Assessment of the tumor necrosis in vivo; conditions: intravenous injection, 24 hours after treatment, female BALB/c mice
Text: Mice are bred by IFFA-CREDO (Domaine des Oncins, 69210 L'Arbresle, France) from a race obtained by Jackson Laboratories, Bar Harbor, Me., USA, or by Charles River France (76410 St Aubin les Elbeuf, France) from a race obtained by Charles River, USA. The mice initially weigh more than 18 g at the start of the test. They have free access to food (UAR reference 113, Villemoisson, 91160 Epinay sur Orge, France) and water.
The tumors used are currently transplanted in our laboratories. All these tumors are at the Frederick Cancer Research Facility (Frederick, Md., USA) in the frozen tumor deposit of the National Cancer Institute (NCl) or at the American Type Culture Collection (ATCC, Rockville, Md., USA).
The tumor transplantation techniques, the chemotherapy and the data analysis are presented in detail (Corbett et al. 1982a; Corbett et al., 1982b).
To summarize, the animals required for an experiment are assembled and implanted bilaterally on day 0 (zero).
The growth of the solid tumors develops freely up to the desired size. The mice are then treated by intravenous injection of a test compound in solution.
The sampling of tumors is usually (but not necessarily) carried out 24 hours after the treatment.
The mice are killed by […]. The implanted tumors, along with the skin covering them and the neighboring tissues, are collected and stored in 10% formaldehyde (v/v) (Carlo Erba, Val de Reuil, France).
The samples are then treated, sectioned, stained with hematoxylin, eosin and saffron yellow, and are then examined […]. The tumor necrosis (necrosis±degeneration) is assessed microscopically using a scale of magnitude from 0 to 5:
The values assigned to the tumor necrosis 24 hours after administration of the test compound correspond solely to a necrosis dependent on the product which may be differentiated with certainty from any existing necrosis arising from the experiment.
The necrosis due to the experiment was assessed on an untreated control.
The tumor model is a C51 murine adenocarcinoma. This colon tumor is a grade III mucous colon […]. It is maintained by serial subcutaneous passages every 18 days in female BALB/c mice. The experiments were carried out on female BALB/c mice.

[2] = target: T1, Tubulin (Sus scrofa, UniProt P02550+P02554); experiment: Assessment of the inhibition of tubulin polymerization (turbidimetry); format: biochemical, pig; conditions: tubulin 10 μM, turbidity at 350 nm, 37° C.
T1 construct: Tubulin is purified from pig brains according to the published methods; from tissue; host or cells: pig brain
T1 sequence (P02550 whole entry): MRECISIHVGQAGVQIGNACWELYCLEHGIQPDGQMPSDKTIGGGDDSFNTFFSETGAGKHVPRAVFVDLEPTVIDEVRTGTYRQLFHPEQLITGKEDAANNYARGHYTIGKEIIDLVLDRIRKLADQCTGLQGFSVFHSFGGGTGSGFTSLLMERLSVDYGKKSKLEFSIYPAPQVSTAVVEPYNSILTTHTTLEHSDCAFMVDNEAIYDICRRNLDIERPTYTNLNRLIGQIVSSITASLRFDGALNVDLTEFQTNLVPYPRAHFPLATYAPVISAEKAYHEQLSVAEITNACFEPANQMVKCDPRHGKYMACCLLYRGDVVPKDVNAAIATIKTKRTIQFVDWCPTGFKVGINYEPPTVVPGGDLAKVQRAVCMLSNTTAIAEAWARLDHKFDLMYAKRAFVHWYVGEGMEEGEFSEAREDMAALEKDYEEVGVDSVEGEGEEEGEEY
T1 sequence (P02554 whole entry): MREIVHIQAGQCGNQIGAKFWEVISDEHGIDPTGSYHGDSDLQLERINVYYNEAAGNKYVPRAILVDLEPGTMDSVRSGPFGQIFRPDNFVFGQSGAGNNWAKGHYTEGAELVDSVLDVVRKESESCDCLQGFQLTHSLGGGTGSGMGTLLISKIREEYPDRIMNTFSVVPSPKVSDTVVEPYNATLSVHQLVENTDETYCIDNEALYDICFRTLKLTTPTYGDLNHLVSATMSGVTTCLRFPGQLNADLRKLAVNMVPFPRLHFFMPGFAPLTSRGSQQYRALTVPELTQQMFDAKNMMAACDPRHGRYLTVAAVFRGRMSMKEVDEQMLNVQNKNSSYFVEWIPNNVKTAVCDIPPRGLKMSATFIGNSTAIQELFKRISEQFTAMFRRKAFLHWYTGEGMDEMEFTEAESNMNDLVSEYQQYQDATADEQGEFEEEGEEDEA
Protocol: Tubulin is purified from pig brains according to the published methods (Shelanski et al., 1973, Proc. Natl, Acad. Sci. USA, 70, 765-768. Weingarten et al., 1975, Proc. Natl, Acad. Sci. USA, 72, 1858-1862). Briefly, the brains are ground and centrifuged in an extraction buffer. The tubulin, contained in the extract supernatant, is subjected to two successive cycles of polymerization at 37° C. and depolymerization at 4° C., before being separated from the MAPs (Microtubule Associated Proteins) by chromatography on a phosphocellulose P11 column (Whatman). The tubulin thus isolated is more than 95% pure. It is stored in a buffer known as RB/2 30% glycerol, the composition of which is MES-NaOH [2-(N-morpholino)ethanesulfonic acid] 50 mM, pH 6.8; MgCl2 0.25 mM; EGTA 0.5 mM; 30% glycerol (v/v), GTP (guanosine 5′-triphosphate) 0.2 mM.
The polymerization of the tubulin into microtubules is monitored by turbidimetry as follows; the tubulin is adjusted to a concentration of 10 μM (1 mg/ml) in the RB/2 30% glycerol buffer, to which is added 1 mM GTP and 6 mM MgCl2. The polymerization is initiated by increasing the temperature from 6° C. to 37° C. in a cuvette with a 1 cm optical pathlength, placed in a Uvikon 931 spectrophotometer (Kontron) equipped with a thermostatically-regulated cuvette holder. The increase in the turbidity of the solution is monitored at 350 nm.
The products are dissolved at 10 mM in DMSO and added at variable concentrations (0.5 to 10 μM) to the tubulin solution before polymerization. The IC50 value is defined as the concentration of product which inhibits 50% of the rate of polymerization. A product whose IC50 value is less than or equal to 3 μM is considered as very active.

[3] = tested on: HDMEC cells; experiment: Detachment effect on HDMEC endothelial cells; format: cell-based, Human; conditions: 1 μM, treatment for two hours
Text: A test to determine the detachment of endothelial cells was established in order to select the products on the basis of their “in vitro” activity. This test for determining the endothelial cell detachment is characterized in that the endothelial cells, inoculated in plates which are coated at the bottom with a binder, e.g., chosen from gelatin, fibronectin or vitronectin, after culturing, are supplemented with a medium containing the test compound, and the cells are then labeled with a fluorescent substance, the cells which become detached are removed by washing and the fluorescence of the remaining cells is counted in a fluorimeter.
This test consists in measuring the detachment of endothelial cells cultured on substrates based on a binder, e.g., chosen from fibronectin, vitronectin and gelatin. One day after inoculating the cells in plates containing 96 wells, for example, the culture medium is replaced with a medium containing the test compound in the absence of serum. The same preparation is prepared six times at three different concentrations ([…]) and the control without addition of antivascular product is prepared six times. After treatment for two hours with the test substance, the cells are labeled with calcein-AM (1.6 μg/ml) in a culture medium supplemented with 0.1% BSA. The cells which become detached are removed by washing with the culture medium containing 0.1% bovine serum albumin; 100 μl of medium are added to each well. The fluorescence of the remaining cells is counted in a fluorimeter. The data obtained are expressed relative to the control (untreated cells).
(§1) The assessment of the detachment of the endothelial cells in vitro is determined in the following way. HDMEC cells (Human Dermal Microvascular Endothelial Cells, Promocell, c-122102) are cultured in an ECGM-MV medium containing 5% fetal calf serum, growth factors (EGF 10 ng/ml, hydrocortisone 1 μg/ml, 0.4% growth supplement with heparin) and antibiotics (amphotericin 50 ng/ml, gentamicin 50 μg/ml). For the detachment test, the HDMECs are inoculated at a rate of 5 000 cells in clear-bottomed 96-well plates (Costar) precoated with fibronectin (10 μg/ml) or vitronectin (1 μg/ml) or gelatin. Twenty-four hours later, the culture medium is replaced with 0.1% BSA ECGM-MV medium containing the indicated products. The test concentrations are 0.1-0.3 and 1 μM for each product. After treatment for two hours, the cells are labeled for 1 hour with calcein (1.6 μg/ml, Molecular Probes) in 0.1% BSA ECGM-MV medium. The detached cells are then removed by washing with 0.1% BSA ECGM-MV medium; 100 μl of medium are added to each well. The fluorescence of the cells which remain attached to the substratum of the well is counted using a fluorimeter, Spectrafluor Plus (Tecan, excitation at 485 nm, and emission at 535 nm). The data are the average of six different samples and are expressed as a percentage of the control (untreated cells).
A cell detachment effect of greater than or equal to 15% is considered as significant.
as §1, with “(amphotericine” for “(amphotericin”, “The detached cells are then removed by washing with 0.1% BSA ECGM-MV medium; 100 μl of medium are added to each well. The fluorescence of the cells which remain attached to the substratum of the well is counted using a fluorimeter, Spectrafluor Plus (Tecan, excitation at 485 nm, and emission at 535 nm). The data are the average of six different samples and are expressed as a percentage of the control (untreated cells).” left out

[4] = tested on: HDMEC; experiment: Inhibition of cell proliferation, HDMEC; format: cell-based; conditions: Homo sapiens

IC50 [2] | melting point | Compound | C51 colon tumor necrosis in vivo (grade) ([1]; 50 mg/kg) | Percentage of detachment of HDMEC cells induced with the compound at a concentration of 1 μM [3] | IC50 [4] | C51 colon tumor necrosis in vivo (grade) ([1]; 25 mg/kg)
800 nM |  | COc1cc(C(=O)/C(C)=C/c2ccc3c(c2)CCN3C)cc(OC)c1OC [Example 6, E-2-Methyl-3-(1-methyl-2,3-dihydro-1-H-indol-5-yl)-1-(3,4,5-trimethoxyphenyl)propenone] | Grade 5 at 50 (5=large, >75%) | 28% | 17 to 20 nM | 
800 nM | 140 °C | COc1cc(C(=O)/C(C)=C/c2ccc3[nH]ccc3c2)cc2c1OCO2 [Example 17, E-2-Methyl-3-(1-H-indol-5-yl)-1-(3-methoxy-4,5-methylenedioxyphenyl)propenone] |  |  |  | 
2000 nM | 118 °C | COc1cc(C(=O)/C(C)=C/c2ccc3c(ccn3CCN(C)C)c2)cc2c1OCO2 [Example 18, E-2-Methyl-3-[1-(2-dimethylaminoethyl)-1-H-indol-5-yl]-1-(3-methoxy-4,5-methylenedioxyphenyl)propenone] |  |  |  | 

The next lines start with the molecule.

Compound | IC50 [2] | melting point | C51 colon tumor necrosis in vivo (grade) ([1]; 50 mg/kg) | Percentage of detachment of HDMEC cells induced with the compound at a concentration of 1 μM [3] | IC50 [4] | C51 colon tumor necrosis in vivo (grade) ([1]; 25 mg/kg)
COc1ccc(C=C(C)C(=O)c2cc(OC)c(OC)c(OC)c2)cc1NC(=O)[C@@H](N)CCCCN.Cl.Cl [Example 10, (S)-2,6-Diaminohexanoic acid {2-methoxy-5-[2-methyl-3-oxo-3-(3,4,5-trimethoxyphenyl)propenyl]-phenyl}amide dihydrochloride] |  |  |  | 36% | 207 to 225 nM | Grade 5 at 25 (5=large, >75%)
COc1ccc(/C=C(\C)C(=O)c2cc(OC)c(OC)c(OC)c2)cc1NC(=O)CN [Example 14, Aminoacetic acid {2-methoxy-5-[2-methyl-3-oxo-3-(3,4,5-trimethoxyphenyl)propenyl]phenyl}amide hydrochloride] | 25000 nM |  |  | 36% | 10 nM | Grade 5 at 25 (5=large, >75%)
